The test system of data set [1] is MRAB (A. baumannii) ATCC BAA 1605. It counts as cell-based, Acinetobacter baumannii. Put shortly: (§1)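 Mid-log cultures grown in CAMHB and diluted to 1× 10^6 cfu/ml in PBS were mixed with an equal volume of peptide in CAMHB (80 µM to 0.63 µM twofold dilutions). MIC taken as the mean of three independent experiments.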
The subject of data set [2] is MRPA (P. aeruginosa) CCARM 2180. It counts as cell-based, Pseudomonas aeruginosa. Particulars: CCARM 2180, 18 h. Put shortly:
as §1

Data set [3] can be described thus: Solubility of antibacterial peptides in solution. The format is physicochemical.
For data set [4], the system named is 30 species of Acinetobacter baumannii (A. baumannii). It counts as cell-based. Here is the method:
In addition, the results obtained by measuring the minimum inhibitory concentrations of KSH29, KSH42 and KSH43 against 30 species of Acinetobacter baumannii (A. baumannii) are shown in Table 4 below.
The minimum inhibitory concentrations (MIC) against the 30 species of Acinetobacter baumannii were measured in the following manner.
The strain 1605 was purchased from ATCC (American Type Culture Collection, USA). In addition, the strain 40203 was purchased from the Korean Culture Center of Microorganisms.
The COL^R refers to resistance to colistin, the TGC^R refers to resistance to tigecycline, and the TGC^I refers to tigecycline intermediate strains.

Data set [5] deals with MRSA (S. aureus) KCCM 40510. The format is cell-based, Staphylococcus aureus. To be noted: KCCM 40510, 18 h. Put shortly:
as §1

Data set [6] relates to VRE (E. faecalis) ATCC 51575. It counts as cell-based, Enterococcus faecalis. Particulars: ATCC 51575, 18 h. The procedure, abridged: as §1
Where [7] appears, read: against 30 species of Acinetobacter baumannii.

By solubility is commonly meant how much of the substance goes into solution per volume. Lower therefore signals little dissolved substance. As usually defined, the MIC is the lowest concentration that inhibits growth of the organism. Low readings indicate a more susceptible organism, high ones a less susceptible organism. Broadly, the MIC50 is the lowest concentration that inhibits either 50% of growth or 50% of the strains tested, depending on the study. A low value points to greater potency. By MIC90 is commonly meant the lowest concentration that inhibits either 90% of growth or 90% of the strains tested, depending on the study. Read a low MIC90 as greater potency.

Converted amounts (≈) assume the structure as drawn. Where two headings read alike, the source gives them in different places. Square brackets hold non-standard residues; d marks the D form. Ends that are not written are not given here. Peptide text beside a SMILES is read from it. * marks the point of attachment. NH(β-GlcNAc) = CC(=O)N[C@@H]1[C@@H](O)[C@H](O)[C@@H](CO)O[C@H]1N* Bounds are passed on as bounds.

As to `CC[C@@H](C)[C@@H](NC(=O)[C@@H](Cc1c[nH]c2ccccc12)NC(=O)[C@H](NC(=O)[C@@H](CC(C)C)NC(=O)[C@H](N)Cc1c[nH]c2ccccc12)C(C)C)C(=O)N[C@H](Cc1c[nH]c2ccccc12)C(=O)N[C@H](CCC(N)=O)C(=O)N[C@H](CCCNC(=N)N)C(=O)N[C@H](CCCNC(=N)N)C(=O)N[C@H](CCCNC(=N)N)C(N)=O` [KSH30, wlvwiwqrrr] (H-[dW][dL][dV][dW][dI][dW][dQ][dR][dR][dR]-NH2; N-terminus assumed), in data set [1] (CAMHB, 37° C., 18 hours, average of three experiments), the “MIC MRAB (A. baumannii) ATCC BAA 1605” value was found to be 1.25 µM (≈ 1.87 µg/mL). In addition, the “MIC MRPA (P. aeruginosa) CCARM 2180” value in data set [2] is over 5 µM. Moreover, the solubility at 12 h in data set [3] (aqueous buffer) was at least 25 µM; in data set [3] (plasma or biological fluid), 50 µM (≈ 74.9 µg/mL); in data set [3] (water), over 2000 µM.
Consider `CC[C@@H](C)[C@@H](NC(=O)[C@@H](Cc1c[nH]c2ccccc12)NC(=O)[C@H](NC(=O)[C@@H](CC(C)C)NC(=O)[C@H](N)Cc1c[nH]c2ccccc12)C(C)C)C(=O)N[C@H](Cc1c[nH]c2ccccc12)C(=O)N[C@H](CCCNC(=N)N)C(=O)N[C@H](CCCNC(=N)N)C(=O)N[C@H](CCCNC(=N)N)C(N)=O` [KSH29, wlvwiwrrr] (H-[dW][dL][dV][dW][dI][dW][dR][dR][dR]-NH2; N-terminus assumed), for which the MIC in data set [4] (A. baumannii strain 1), in data set [4] (A. baumannii strain 6 (TGC^I)), in data set [4] (A. baumannii strain 10), in data set [4] (A. baumannii strain 14), in data set [4] (A. baumannii strain 15) and in data set [4] (A. baumannii strain 16) was 1.25 µM (≈ 1.71 µg/mL) each time. The MIC in data set [4] (A. baumannii strain 19), in data set [4] (A. baumannii strain 22 (TGC^I)), in data set [4] (A. baumannii strain 39), in data set [4] (A. baumannii strain 44), in data set [4] (A. baumannii strain 66) and in data set [4] (A. baumannii strain 68) was 1.25 µM (≈ 1.71 µg/mL) each time. Moreover, the MIC in data set [4] (A. baumannii strain 69), in data set [4] (A. baumannii strain 71), in data set [4] (A. baumannii strain 76), in data set [4] (A. baumannii strain 82), in data set [4] (A. baumannii strain 89) and in data set [4] (A. baumannii strain 102 (TGC^I)) was 1.25 µM (≈ 1.71 µg/mL) each time. Also, the MIC in data set [4] (A. baumannii strain 127), in data set [4] (A. baumannii strain 141 (TGC^R)), in data set [4] (A. baumannii strain 144), in data set [4] (A. baumannii strain 147 (TGC^R)), in data set [4] (A. baumannii strain 152 (TGC^R)) and in data set [4] (A. baumannii strain 10087) was 1.25 µM (≈ 1.71 µg/mL) each time. The MIC in data set [4] (A. baumannii strain 19606) and in data set [4] (A. baumannii strain 40203 (Korean Culture Center of Microorganisms)) was 1.25 µM (≈ 1.71 µg/mL) in each case. The molecule further showed an MIC50 in data set [4] (setting [7]) of 1.25 µM (≈ 1.71 µg/mL). This molecule came in with an MIC90 in data set [4] (setting [7]) of 1.25 µM (≈ 1.71 µg/mL). The results for the solubility at 12 h in data set [3] (aqueous buffer), in data set [3] (plasma or biological fluid) and in data set [3] (water) were at least 100 µM, 50 µM (≈ 68.5 µg/mL) and over 2000 µM, respectively.
For the molecule `CC[C@@H](C)[C@@H](NC(=O)[C@@H](Cc1c[nH]c2ccccc12)NC(=O)[C@@H](CCCNC(=N)N)NC(=O)[C@@H](CCCNC(=N)N)NC(=O)[C@H](N)CCCNC(=N)N)C(=O)N[C@H](Cc1c[nH]c2ccccc12)C(=O)N[C@@H](C(=O)N[C@H](CC(C)C)C(=O)N[C@H](Cc1c[nH]c2ccccc12)C(=O)N[C@H](CCCCN)C(=O)N[C@@H](CC(=O)N[C@@H]1O[C@H](CO)[C@@H](O)[C@H](O)[C@H]1NC(C)=O)C(N)=O)C(C)C` [KSH48, rrrwiwvlwkN] (H-[dR][dR][dR][dW][dI][dW][dV][dL][dW][dK]D(NH(β-GlcNAc))-NH2; N-terminus assumed), the “MIC MRAB (A. baumannii) ATCC BAA 1605” value in data set [1] (ATCC BAA 1605, 18 h) worked out at 0.63 µM (≈ 1.14 µg/mL). Also, the “MIC MRSA (S. aureus) KCCM 40510” value in data set [5] amounted to 2.5 µM (≈ 4.54 µg/mL). Also, the “MIC VRE (E. faecalis) ATCC 51575” value in data set [6] was 2.5 µM (≈ 4.54 µg/mL). In addition, in data set [2], the “MIC MRPA (P. aeruginosa) CCARM 2180” value worked out at 2.5 µM (≈ 4.54 µg/mL).
Turning to VWVWVWVRKKR-NH2 [LSH99], the “MIC MRAB (A. baumannii) ATCC BAA 1605” value in data set [1] (ATCC BAA 1605, 18 h) was 2.5 µM. For the same molecule, in data set [5], the “MIC MRSA (S. aureus) KCCM 40510” value was over 40 µM. In data set [6], the “MIC VRE (E. faecalis) ATCC 51575” value worked out at 10 µM. For the same molecule, the “MIC MRPA (P. aeruginosa) CCARM 2180” value in data set [2] is over 40 µM.
With `CC[C@@H](C)[C@@H](NC(=O)[C@@H](Cc1c[nH]c2ccccc12)NC(=O)[C@@H](CCCCN)NC(=O)[C@@H](CCCNC(=N)N)NC(=O)[C@H](N)CCCNC(=N)N)C(=O)N[C@H](Cc1c[nH]c2ccccc12)C(=O)N[C@H](Cc1c[nH]c2ccccc12)C(=O)N[C@H](CC(C)C)C(=O)N[C@H](Cc1c[nH]c2ccccc12)C(=O)N[C@H](CCCCN)C(=O)N[C@H](CCCCN)C(=O)N[C@H](CCCCN)C(N)=O` [KSH52, rrkwiwwlwkkk] (H-[dR][dR][dK][dW][dI][dW][dW][dL][dW][dK][dK][dK]-NH2; N-terminus assumed), in data set [1] (ATCC BAA 1605, 18 h), the “MIC MRAB (A. baumannii) ATCC BAA 1605” value is 1.25 µM (≈ 2.27 µg/mL). Also, the “MIC MRSA (S. aureus) KCCM 40510” value in data set [5] is reported as 5 µM (≈ 9.07 µg/mL). Further, in data set [6], the “MIC VRE (E. faecalis) ATCC 51575” value stood at 5 µM (≈ 9.07 µg/mL). In addition, the “MIC MRPA (P. aeruginosa) CCARM 2180” value in data set [2] worked out at 5 µM (≈ 9.07 µg/mL).
